Data taken from ChEMBL document CHEMBL3885881, “DrugMatrix”.

Species: Rattus norvegicus
Assay: DrugMatrix - Regimen: Daily Repeat
Type: toxicity, organism-based, Sprague-Dawley
Design: regimen Daily Repeat, gender Male, age 6-8 weeks
Details: in vivo, po, 52 mg/kg, route oral GAVAGE, dose level High, […]; for ABSOLUTE BASOPHIL / ABSOLUTE EOSINOPHIL / ABSOLUTE LYMPHOCYTE / ABSOLUTE MONOCYTE / ABSOLUTE SEGMENTED NEUTROPHIL / BASOPHIL / EOSINOPHIL / ERYTHROCYTE COUNT / HEMATOCRIT / HEMOGLOBIN / LEUKOCYTE COUNT / LYMPHOCYTE / MEAN CORPUSCULAR HEMOGLOBIN / MEAN CORPUSCULAR HEMOGLOBIN CONCENTRATION / MEAN CORPUSCULAR VOLUME / MONOCYTE / NEUTROPHIL / NUCLEATED RED BLOOD CELLS / PLATELET COUNT: tissue Blood; for ALANINE AMINOTRANSFERASE / ALBUMIN / ALKALINE PHOSPHATASE / ASPARTATE AMINOTRANSFERASE / BLOOD UREA NITROGEN / CARBON DIOXIDE / CHLORIDE / CHOLESTEROL / CREATINE PHOSPHOKINASE / CREATININE / GLUCOSE / LACTATE DEHYDROGENASE / LIPASE / PHOSPHORUS / POTASSIUM / SODIUM / TOTAL BILIRUBIN / TOTAL PROTEIN / URIC ACID: tissue Plasma

CC(C(=O)O)c1cccc(Oc2ccccc2)c1 (stereo unspecified) [FENOPROFEN]
ABSOLUTE BASOPHIL (72 h, time 3 day): 0 CELLS/uL | ABSOLUTE EOSINOPHIL (72 h, time 3 day): 0 CELLS/uL | ABSOLUTE LYMPHOCYTE (72 h, time 3 day): 16297.67 CELLS/uL | ABSOLUTE MONOCYTE (72 h, time 3 day): 471.33 CELLS/uL | ABSOLUTE SEGMENTED NEUTROPHIL (72 h, time 3 day): 2164.33 CELLS/uL | BASOPHIL (72 h, time 3 day): 0% | EOSINOPHIL (72 h, time 3 day): 0% | ERYTHROCYTE COUNT (72 h, time 3 day): 5.47 x10E6/uL | HEMATOCRIT (72 h, time 3 day): 33.6% | HEMOGLOBIN (72 h, time 3 day): 13.27 G/DL | LEUKOCYTE COUNT (72 h, time 3 day): 18.93 x10E3/uL | LYMPHOCYTE (72 h, time 3 day): 87.33% | MEAN CORPUSCULAR HEMOGLOBIN (72 h, time 3 day): 24.23 pg | MEAN CORPUSCULAR HEMOGLOBIN CONCENTRATION (72 h, time 3 day): 39.5 G/DL | MEAN CORPUSCULAR VOLUME (72 h, time 3 day): 61.37 fL | MONOCYTE (72 h, time 3 day): 2.33% | NEUTROPHIL (72 h, time 3 day): 10.33% | NUCLEATED RED BLOOD CELLS (72 h, time 3 day): 0 /100WBC | PLATELET COUNT (72 h, time 3 day): 1245.33 x10E3/uL | ALANINE AMINOTRANSFERASE (72 h, time 3 day): 68.33 u/L | ALBUMIN (72 h, time 3 day): 3.93 G/DL | ALKALINE PHOSPHATASE (72 h, time 3 day): 437.33 u/L | ASPARTATE AMINOTRANSFERASE (72 h, time 3 day): 102 u/L | BLOOD UREA NITROGEN (72 h, time 3 day): 14.67 mg/dL | CARBON DIOXIDE (72 h, time 3 day): 28.67 mmol/L | CHLORIDE (72 h, time 3 day): 102.33 MEQ/L | CHOLESTEROL (72 h, time 3 day): 63.33 mg/dL | CREATINE PHOSPHOKINASE (72 h, time 3 day): 360.67 u/L | CREATININE (72 h, time 3 day): 0.15 mg/dL | GLUCOSE (72 h, time 3 day): 149.67 mg/dL | LACTATE DEHYDROGENASE (72 h, time 3 day): 593 u/L | LIPASE (72 h, time 3 day): 12 u/L | PHOSPHORUS (72 h, time 3 day): 11.6 mg/dL | POTASSIUM (72 h, time 3 day): 7.04 MEQ/L | SODIUM (72 h, time 3 day): 141.5 MEQ/L | TOTAL BILIRUBIN (72 h, time 3 day): 0.17 mg/dL | TOTAL PROTEIN (72 h, time 3 day): 5.37 G/DL | URIC ACID (72 h, time 3 day): 1.53 mg/dL | ABSOLUTE BASOPHIL (120 h, time 5 day): 0 CELLS/uL | ABSOLUTE EOSINOPHIL (120 h, time 5 day): 54 CELLS/uL | ABSOLUTE LYMPHOCYTE (120 h, time 5 day): 12815.33 CELLS/uL | ABSOLUTE MONOCYTE (120 h, time 5 day): 148.67 CELLS/uL | ABSOLUTE SEGMENTED NEUTROPHIL (120 h, time 5 day): 1848.67 CELLS/uL | BASOPHIL (120 h, time 5 day): 0% | EOSINOPHIL (120 h, time 5 day): 0.33% | ERYTHROCYTE COUNT (120 h, time 5 day): 5.11 x10E6/uL | HEMATOCRIT (120 h, time 5 day): 33% | HEMOGLOBIN (120 h, time 5 day): 13.3 G/DL | LEUKOCYTE COUNT (120 h, time 5 day): 14.87 x10E3/uL | LYMPHOCYTE (120 h, time 5 day): 85.67% | MEAN CORPUSCULAR HEMOGLOBIN (120 h, time 5 day): 26 pg | MEAN CORPUSCULAR HEMOGLOBIN CONCENTRATION (120 h, time 5 day): 40.3 G/DL | MEAN CORPUSCULAR VOLUME (120 h, time 5 day): 64.53 fL | MONOCYTE (120 h, time 5 day): 1% | NEUTROPHIL (120 h, time 5 day): 13% | NUCLEATED RED BLOOD CELLS (120 h, time 5 day): 0.33 /100WBC | PLATELET COUNT (120 h, time 5 day): 1200 x10E3/uL | ALANINE AMINOTRANSFERASE (120 h, time 5 day): 64.67 u/L | ALBUMIN (120 h, time 5 day): 4.13 G/DL | ALKALINE PHOSPHATASE (120 h, time 5 day): 380.33 u/L | ASPARTATE AMINOTRANSFERASE (120 h, time 5 day): 93.33 u/L | BLOOD UREA NITROGEN (120 h, time 5 day): 13.33 mg/dL | CARBON DIOXIDE (120 h, time 5 day): 23 mmol/L | CHLORIDE (120 h, time 5 day): 100.67 MEQ/L | CHOLESTEROL (120 h, time 5 day): 57.33 mg/dL | CREATINE PHOSPHOKINASE (120 h, time 5 day): 263.67 u/L | CREATININE (120 h, time 5 day): 0.17 mg/dL | GLUCOSE (120 h, time 5 day): 175 mg/dL | LACTATE DEHYDROGENASE (120 h, time 5 day): 284 u/L | LIPASE (120 h, time 5 day): 10.67 u/L | PHOSPHORUS (120 h, time 5 day): 12 mg/dL | POTASSIUM (120 h, time 5 day): 6.69 MEQ/L | SODIUM (120 h, time 5 day): 141.5 MEQ/L | TOTAL BILIRUBIN (120 h, time 5 day): 0.2 mg/dL | TOTAL PROTEIN (120 h, time 5 day): 5.3 G/DL | URIC ACID (120 h, time 5 day): 1.77 mg/dL
